Patent US9340590B2 (priority 2011, dated 2016)
Positions of bridges follow the written chain, without caps; N, C: chain ends. Non-standard residues stand in square brackets, D forms with d. Residues, ends and D or L forms follow the SMILES beside them. Pra = C#CC[C@H](N)C(=O)O

Key:
Experiment in all cases: cell-based
hNav1.7 = hNav1.7 (Homo sapiens, UniProt Q15858); type: cell-based; details: IonWorks Quattro, use-dependent block, hNav1.7; read-out: IWQ Use Nav1.7
hNav1.5 = hNav1.5 (Homo sapiens, UniProt Q14524); details: IonWorks Quattro, use-dependent block, hNav1.5; read-out: IWQ Use Nav1.5
Chain of hNav1.5 (Q14524 whole entry, looked up): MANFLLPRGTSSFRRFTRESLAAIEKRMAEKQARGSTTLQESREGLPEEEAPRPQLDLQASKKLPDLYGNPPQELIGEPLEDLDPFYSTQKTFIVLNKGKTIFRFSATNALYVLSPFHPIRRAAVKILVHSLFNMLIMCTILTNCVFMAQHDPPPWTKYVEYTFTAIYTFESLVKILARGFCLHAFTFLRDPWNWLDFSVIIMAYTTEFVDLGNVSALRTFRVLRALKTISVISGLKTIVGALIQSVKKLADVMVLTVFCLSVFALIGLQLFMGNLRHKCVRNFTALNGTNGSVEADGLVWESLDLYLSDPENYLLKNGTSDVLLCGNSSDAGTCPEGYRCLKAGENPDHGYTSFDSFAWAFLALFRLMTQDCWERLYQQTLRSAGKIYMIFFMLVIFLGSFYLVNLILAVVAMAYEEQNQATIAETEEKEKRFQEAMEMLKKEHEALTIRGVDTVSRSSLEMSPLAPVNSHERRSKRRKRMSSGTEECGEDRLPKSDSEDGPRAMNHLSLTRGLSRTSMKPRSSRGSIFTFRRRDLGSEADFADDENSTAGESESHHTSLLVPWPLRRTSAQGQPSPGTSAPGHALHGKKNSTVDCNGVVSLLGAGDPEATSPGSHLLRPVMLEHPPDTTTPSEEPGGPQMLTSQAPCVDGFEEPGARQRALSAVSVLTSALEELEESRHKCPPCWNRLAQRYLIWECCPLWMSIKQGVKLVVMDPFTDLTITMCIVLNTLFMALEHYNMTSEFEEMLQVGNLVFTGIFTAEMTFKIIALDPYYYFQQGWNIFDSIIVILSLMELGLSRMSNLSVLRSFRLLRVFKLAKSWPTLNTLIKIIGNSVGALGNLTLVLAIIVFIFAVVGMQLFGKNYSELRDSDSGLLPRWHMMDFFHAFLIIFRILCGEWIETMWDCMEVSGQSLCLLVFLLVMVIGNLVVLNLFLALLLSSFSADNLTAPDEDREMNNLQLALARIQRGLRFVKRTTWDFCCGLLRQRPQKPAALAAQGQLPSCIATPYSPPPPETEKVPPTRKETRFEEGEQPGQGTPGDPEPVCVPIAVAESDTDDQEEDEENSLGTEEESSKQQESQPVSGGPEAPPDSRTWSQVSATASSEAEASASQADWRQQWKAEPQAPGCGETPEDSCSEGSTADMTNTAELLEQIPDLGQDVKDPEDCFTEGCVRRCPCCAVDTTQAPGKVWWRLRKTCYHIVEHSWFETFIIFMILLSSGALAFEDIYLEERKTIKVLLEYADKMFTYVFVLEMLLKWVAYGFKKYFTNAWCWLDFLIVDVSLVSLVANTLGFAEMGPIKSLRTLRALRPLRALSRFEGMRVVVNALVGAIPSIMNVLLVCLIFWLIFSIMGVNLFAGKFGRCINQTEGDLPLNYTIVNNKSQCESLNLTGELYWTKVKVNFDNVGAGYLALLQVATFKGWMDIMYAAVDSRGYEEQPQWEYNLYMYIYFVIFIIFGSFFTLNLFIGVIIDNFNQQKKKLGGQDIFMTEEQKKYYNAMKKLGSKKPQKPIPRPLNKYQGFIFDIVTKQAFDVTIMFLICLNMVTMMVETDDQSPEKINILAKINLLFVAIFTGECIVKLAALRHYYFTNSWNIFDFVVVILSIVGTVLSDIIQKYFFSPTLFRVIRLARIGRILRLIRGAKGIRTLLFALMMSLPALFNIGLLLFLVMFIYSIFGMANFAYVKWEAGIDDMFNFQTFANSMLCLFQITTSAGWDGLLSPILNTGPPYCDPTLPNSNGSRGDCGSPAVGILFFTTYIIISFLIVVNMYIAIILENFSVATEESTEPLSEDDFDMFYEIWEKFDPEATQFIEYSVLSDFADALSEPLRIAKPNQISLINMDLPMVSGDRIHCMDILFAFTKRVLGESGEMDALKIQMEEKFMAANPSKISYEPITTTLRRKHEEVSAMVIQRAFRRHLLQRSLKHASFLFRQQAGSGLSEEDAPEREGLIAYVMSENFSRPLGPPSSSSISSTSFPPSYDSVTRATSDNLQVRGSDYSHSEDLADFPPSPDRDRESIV

hNav1.3 = hNav1.3 (Homo sapiens, UniProt Q9NY46); details: IonWorks Quattro, use-dependent block, hNav1.3; read-out: IWQ Use Nav1.3
Chain of hNav1.3 (Q9NY46 whole entry, looked up): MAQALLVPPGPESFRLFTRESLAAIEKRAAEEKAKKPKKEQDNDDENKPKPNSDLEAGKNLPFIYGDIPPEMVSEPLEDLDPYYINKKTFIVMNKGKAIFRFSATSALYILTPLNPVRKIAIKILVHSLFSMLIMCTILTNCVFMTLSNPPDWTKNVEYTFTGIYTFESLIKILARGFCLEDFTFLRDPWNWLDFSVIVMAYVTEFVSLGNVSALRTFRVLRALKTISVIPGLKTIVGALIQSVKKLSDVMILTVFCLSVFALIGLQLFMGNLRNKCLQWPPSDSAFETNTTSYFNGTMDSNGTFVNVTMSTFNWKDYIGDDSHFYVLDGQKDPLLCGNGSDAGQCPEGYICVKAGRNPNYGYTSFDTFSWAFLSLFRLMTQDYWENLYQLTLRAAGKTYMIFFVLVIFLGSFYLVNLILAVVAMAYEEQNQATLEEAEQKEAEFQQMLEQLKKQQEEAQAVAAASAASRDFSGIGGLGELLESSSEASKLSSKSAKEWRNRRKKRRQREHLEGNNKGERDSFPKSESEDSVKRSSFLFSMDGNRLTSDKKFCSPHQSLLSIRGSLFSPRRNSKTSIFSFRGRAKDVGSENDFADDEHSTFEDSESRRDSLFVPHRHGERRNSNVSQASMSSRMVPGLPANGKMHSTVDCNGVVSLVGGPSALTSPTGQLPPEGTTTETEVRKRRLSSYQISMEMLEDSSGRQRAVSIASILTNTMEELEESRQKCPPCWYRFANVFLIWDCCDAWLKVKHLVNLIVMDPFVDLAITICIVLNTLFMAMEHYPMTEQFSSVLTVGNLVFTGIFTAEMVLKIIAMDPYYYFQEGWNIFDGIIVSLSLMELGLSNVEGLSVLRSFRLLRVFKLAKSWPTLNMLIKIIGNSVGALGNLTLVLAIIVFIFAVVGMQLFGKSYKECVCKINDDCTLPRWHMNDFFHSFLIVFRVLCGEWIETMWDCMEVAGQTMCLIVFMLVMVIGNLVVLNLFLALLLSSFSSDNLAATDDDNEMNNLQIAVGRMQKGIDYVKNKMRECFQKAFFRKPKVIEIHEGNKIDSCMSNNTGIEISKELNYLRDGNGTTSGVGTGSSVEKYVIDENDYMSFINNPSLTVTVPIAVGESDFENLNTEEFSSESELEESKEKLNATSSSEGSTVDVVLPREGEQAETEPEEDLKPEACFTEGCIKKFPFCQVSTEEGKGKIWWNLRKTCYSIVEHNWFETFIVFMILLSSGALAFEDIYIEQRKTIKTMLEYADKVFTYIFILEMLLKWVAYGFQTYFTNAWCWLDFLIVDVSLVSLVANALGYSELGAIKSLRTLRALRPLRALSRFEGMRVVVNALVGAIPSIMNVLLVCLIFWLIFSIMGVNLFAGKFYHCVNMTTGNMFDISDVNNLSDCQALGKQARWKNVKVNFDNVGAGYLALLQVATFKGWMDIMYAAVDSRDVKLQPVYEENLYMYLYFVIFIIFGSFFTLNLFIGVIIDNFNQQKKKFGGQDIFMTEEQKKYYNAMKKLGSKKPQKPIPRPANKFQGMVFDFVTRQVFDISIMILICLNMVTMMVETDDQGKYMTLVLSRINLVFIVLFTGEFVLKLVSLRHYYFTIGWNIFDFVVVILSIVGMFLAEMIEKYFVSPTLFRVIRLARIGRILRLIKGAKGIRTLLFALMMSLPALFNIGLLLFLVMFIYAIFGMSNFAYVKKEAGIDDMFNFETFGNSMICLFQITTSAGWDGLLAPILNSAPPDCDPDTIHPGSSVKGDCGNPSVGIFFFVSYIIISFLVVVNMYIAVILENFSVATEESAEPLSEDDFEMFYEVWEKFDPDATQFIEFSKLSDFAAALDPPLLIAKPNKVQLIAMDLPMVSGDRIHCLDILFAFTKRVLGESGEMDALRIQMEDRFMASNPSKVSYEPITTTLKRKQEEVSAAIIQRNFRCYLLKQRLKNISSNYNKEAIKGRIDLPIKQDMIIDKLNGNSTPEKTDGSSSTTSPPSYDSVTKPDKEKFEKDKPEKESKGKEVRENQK

Compound | IC50 (hNav1.7) [nM] | IC50 (hNav1.5) [µM] | IC50 (hNav1.3) [nM]
CC[C@H](C)[C@@H]1NC(=O)[C@@H]2CSSC[C@@H]3NC(=O)[C@H](C(C)C)NC(=O)[C@H](CC(C)C)NC(=O)[C@H](CC(N)=O)NC(=O)[C@@H]4CCCN4C(=O)[C@H](CCCNC(=N)N)NC(=O)[C@H](CSSC[C@H](NC(=O)[C@@H](N)CC(=O)O)C(=O)N[C@@H](CC(C)C)C(=O)NCC(=O)N[C@@H](C)C(=O)N[C@@H](CC(C)C)C(=O)N[C@@H](CCCNC(=N)N)C(=O)N[C@@H](CCCCN)C(=O)N2)NC(=O)[C@H](CSSC[C@@H](C(=O)N[C@@H](CCCCN)C(=O)N[C@@H](Cc2ccc(O)cc2)C(=O)N[C@H](C(=O)N[C@@H](Cc2ccccc2)C(N)=O)C(C)C)NC(=O)[C@H](Cc2c[nH]c4ccccc24)NC(=O)[C@H](CCCCN)NC(=O)[C@H](Cc2c[nH]cn2)NC(=O)[C@H]([C@@H](C)O)NC(=O)[C@H](CCCNC(=N)N)NC(=O)[C@H](CO)NC3=O)NC(=O)[C@H](CCCCN)NC(=O)[C@H](CC(=O)O)NC(=O)[C@H](CC(N)=O)NC(=O)[C@H](CCC(=O)O)NC(=O)[C@@H]2CCCN2C1=O [compound 726] | 350 | > 50 | 580
CC[C@H](C)[C@@H]1NC(=O)[C@@H]2CSSC[C@@H]3NC(=O)[C@H](C(C)C)NC(=O)[C@H](CC(C)C)NC(=O)[C@H](CC(N)=O)NC(=O)[C@@H]4CCCN4C(=O)[C@H](CCCNC(=N)N)NC(=O)[C@H](CSSC[C@H](NC(=O)[C@@H](N)CC(=O)O)C(=O)N[C@@H](CC(C)C)C(=O)NCC(=O)N[C@@H](C)C(=O)N[C@@H](CC(C)C)C(=O)N[C@@H](CCCNC(=N)N)C(=O)N[C@@H](CCCCN)C(=O)N2)NC(=O)[C@H](CSSC[C@@H](C(=O)N[C@@H](CCCCN)C(=O)N[C@@H](Cc2ccc(O)cc2)C(=O)N[C@H](C(=O)N[C@@H](Cc2ccccc2)C(N)=O)C(C)C)NC(=O)[C@H](Cc2c[nH]c4ccccc24)NC(=O)[C@H](CCC(=O)O)NC(=O)[C@H](Cc2c[nH]cn2)NC(=O)[C@H]([C@@H](C)O)NC(=O)[C@H](CCCNC(=N)N)NC(=O)[C@H](CO)NC3=O)NC(=O)[C@H](CCCCN)NC(=O)[C@H](CC(=O)O)NC(=O)[C@H](CC(N)=O)NC(=O)[C@H](CC(=O)O)NC(=O)[C@@H]2CCCN2C1=O [compound 728] | 1600 | 43 | 6600
CC[C@H](C)[C@@H]1NC(=O)[C@@H]2CSSC[C@@H]3NC(=O)[C@H](C(C)C)NC(=O)[C@H](CC(C)C)NC(=O)[C@H](CC(N)=O)NC(=O)[C@@H]4CCCN4C(=O)[C@H](CCCNC(=N)N)NC(=O)[C@H](CSSC[C@H](NC(=O)[C@@H](N)CC(=O)O)C(=O)N[C@@H](CC(C)C)C(=O)NCC(=O)N[C@@H](C)C(=O)N[C@@H](Cc4ccccc4)C(=O)N[C@@H](CCCNC(=N)N)C(=O)N[C@@H](CCCCN)C(=O)N2)NC(=O)[C@H](CSSC[C@@H](C(=O)N[C@@H](CCCCN)C(=O)N[C@@H](Cc2ccc(O)cc2)C(=O)N[C@H](C(=O)N[C@@H](Cc2ccccc2)C(N)=O)C(C)C)NC(=O)[C@H](Cc2c[nH]c4ccccc24)NC(=O)[C@H](CCC(=O)O)NC(=O)[C@H](Cc2c[nH]cn2)NC(=O)[C@H]([C@@H](C)O)NC(=O)[C@H](CCCNC(=N)N)NC(=O)[C@H](CO)NC3=O)NC(=O)[C@H](CCCCN)NC(=O)[C@H](CC(=O)O)NC(=O)[C@H](CC(N)=O)NC(=O)[C@H](CC(=O)O)NC(=O)[C@@H]2CCCN2C1=O [compound 729] (H-DCLGAFRKCIPDNDKCCRPNLVCSRTHEWCKYVF-NH2; disulfide 2-17, 9-23, 16-30) | 1100 | 48 | 1800
CC[C@H](C)[C@@H]1NC(=O)[C@@H]2CSSC[C@@H]3NC(=O)[C@H](C(C)C)NC(=O)[C@H](CC(C)C)NC(=O)[C@H](CC(N)=O)NC(=O)[C@@H]4CCCN4C(=O)[C@H](CCCNC(=N)N)NC(=O)[C@H](CSSC[C@H](NC(=O)[C@@H](N)CC(=O)O)C(=O)N[C@@H](CC(C)C)C(=O)NCC(=O)N[C@@H](C)C(=O)N[C@@H](CC(C)C)C(=O)N[C@@H](CCCNC(=N)N)C(=O)N[C@@H](CCCCN)C(=O)N2)NC(=O)[C@H](CSSC[C@@H](C(=O)N[C@@H](CCCCN)C(=O)N[C@@H](Cc2ccc(O)cc2)C(=O)N[C@H](C(=O)N[C@@H](Cc2ccccc2)C(N)=O)C(C)C)NC(=O)[C@H](Cc2c[nH]c4ccccc24)NC(=O)[C@H](CCCCN)NC(=O)[C@H](Cc2c[nH]cn2)NC(=O)[C@H]([C@@H](C)O)NC(=O)[C@H](C)NC(=O)[C@H](CO)NC3=O)NC(=O)[C@H](CCCCN)NC(=O)[C@H](CC(=O)O)NC(=O)[C@H](CC(N)=O)NC(=O)[C@H](CC(=O)O)NC(=O)[C@@H]2CCCN2C1=O [compound 731] | 600 | 38 | 2800
CC[C@H](C)[C@@H]1NC(=O)[C@@H]2CSSC[C@@H]3NC(=O)[C@H](C(C)C)NC(=O)[C@H](CC(C)C)NC(=O)[C@H](CC(N)=O)NC(=O)[C@@H]4CCCN4C(=O)[C@H](CCCNC(=N)N)NC(=O)[C@H](CSSC[C@H](NC(=O)[C@@H](N)CC(=O)O)C(=O)N[C@@H](CC(C)C)C(=O)NCC(=O)N[C@@H](C)C(=O)N[C@@H](Cc4ccccc4)C(=O)N[C@@H](CCCNC(=N)N)C(=O)N[C@@H](CCCCN)C(=O)N2)NC(=O)[C@H](CSSC[C@@H](C(=O)N[C@@H](CCCCN)C(=O)N[C@@H](Cc2ccc(O)cc2)C(=O)N[C@H](C(=O)N[C@@H](Cc2ccccc2)C(N)=O)C(C)C)NC(=O)[C@H](Cc2c[nH]c4ccccc24)NC(=O)[C@H](CCCCN)NC(=O)[C@H](Cc2c[nH]cn2)NC(=O)[C@H]([C@@H](C)O)NC(=O)[C@H](C)NC(=O)[C@H](CO)NC3=O)NC(=O)[C@H](CCCCN)NC(=O)[C@H](CC(=O)O)NC(=O)[C@H](CC(N)=O)NC(=O)[C@H](CC(=O)O)NC(=O)[C@@H]2CCCN2C1=O [compound 732] (H-DCLGAFRKCIPDNDKCCRPNLVCSATHKWCKYVF-NH2; disulfide 2-17, 9-23, 16-30) | 290 | > 50 | 600
CC[C@H](C)[C@@H]1NC(=O)[C@@H]2CSSC[C@@H]3NC(=O)[C@H](C(C)C)NC(=O)[C@H](CC(C)C)NC(=O)[C@H](CC(N)=O)NC(=O)[C@@H]4CCCN4C(=O)[C@H](CCCNC(=N)N)NC(=O)[C@H](CSSC[C@H](NC(=O)[C@@H](N)CC(=O)O)C(=O)N[C@@H](CC(C)C)C(=O)NCC(=O)N[C@@H](C)C(=O)N[C@@H](CC(C)C)C(=O)N[C@@H](CCCNC(=N)N)C(=O)N[C@@H](CCCCN)C(=O)N2)NC(=O)[C@H](CSSC[C@@H](C(=O)N[C@@H](CCCCN)C(=O)N[C@@H](Cc2ccc(O)cc2)C(=O)N[C@H](C(=O)N[C@@H](Cc2ccccc2)C(N)=O)C(C)C)NC(=O)[C@H](Cc2c[nH]c4ccccc24)NC(=O)[C@H](CCCCN)NC(=O)[C@H](Cc2c[nH]cn2)NC(=O)[C@H]([C@@H](C)O)NC(=O)[C@H](CCC(=O)O)NC(=O)[C@H](CO)NC3=O)NC(=O)[C@H](CCCCN)NC(=O)[C@H](CC(=O)O)NC(=O)[C@H](CC(N)=O)NC(=O)[C@H](CC(=O)O)NC(=O)[C@@H]2CCCN2C1=O [compound 734] | 1800 | 41 | 9300
CC[C@H](C)[C@@H]1NC(=O)[C@@H]2CSSC[C@@H]3NC(=O)[C@H](C(C)C)NC(=O)[C@H](CC(C)C)NC(=O)[C@H](CC(N)=O)NC(=O)[C@@H]4CCCN4C(=O)[C@H](CCCNC(=N)N)NC(=O)[C@H](CSSC[C@H](NC(=O)[C@@H](N)CC(=O)O)C(=O)N[C@@H](CC(C)C)C(=O)NCC(=O)N[C@@H](C)C(=O)N[C@@H](Cc4ccccc4)C(=O)N[C@@H](CCCNC(=N)N)C(=O)N[C@@H](CCCCN)C(=O)N2)NC(=O)[C@H](CSSC[C@@H](C(=O)N[C@@H](CCCCN)C(=O)N[C@@H](Cc2ccc(O)cc2)C(=O)N[C@H](C(=O)N[C@@H](Cc2ccccc2)C(N)=O)C(C)C)NC(=O)[C@H](Cc2c[nH]c4ccccc24)NC(=O)[C@H](CCCCN)NC(=O)[C@H](Cc2c[nH]cn2)NC(=O)[C@H]([C@@H](C)O)NC(=O)[C@H](CCC(=O)O)NC(=O)[C@H](CO)NC3=O)NC(=O)[C@H](CCCCN)NC(=O)[C@H](CC(=O)O)NC(=O)[C@H](CC(N)=O)NC(=O)[C@H](CC(=O)O)NC(=O)[C@@H]2CCCN2C1=O [compound 735] (H-DCLGAFRKCIPDNDKCCRPNLVCSETHKWCKYVF-NH2; disulfide 2-17, 9-23, 16-30) | 1500 | 41 | 3600
C#CC[C@@H]1NC(=O)[C@H](CC(=O)O)NC(=O)[C@H](CC(N)=O)NC(=O)[C@H](CC(=O)O)NC(=O)[C@@H]2CCCN2C(=O)[C@H]([C@@H](C)CC)NC(=O)[C@@H]2CSSC[C@@H]3NC(=O)[C@H](C(C)C)NC(=O)[C@H](CC(C)C)NC(=O)[C@H](CC(N)=O)NC(=O)[C@@H]4CCCN4C(=O)[C@H](CCCNC(=N)N)NC(=O)[C@H](CSSC[C@H](NC(=O)[C@@H](N)CC(=O)O)C(=O)N[C@@H](CC(C)C)C(=O)NCC(=O)N[C@@H](Cc4ccccc4)C(=O)N[C@@H](Cc4ccccc4)C(=O)N[C@@H](CCCNC(=N)N)C(=O)N[C@@H](CCCCN)C(=O)N2)NC(=O)[C@H](CSSC[C@@H](C(=O)N[C@@H](CCCCN)C(=O)N[C@@H](Cc2ccc(O)cc2)C(=O)N[C@H](C(=O)N[C@@H](Cc2ccccc2)C(N)=O)C(C)C)NC(=O)[C@H](Cc2c[nH]c4ccccc24)NC(=O)[C@H](CCCCN)NC(=O)[C@H](Cc2c[nH]cn2)NC(=O)[C@H]([C@@H](C)O)NC(=O)[C@H](CCCNC(=N)N)NC(=O)[C@H](CO)NC3=O)NC1=O [compound 736] (H-DCLGFFRKCIPDND[Pra]CCRPNLVCSRTHKWCKYVF-NH2; disulfide 2-17, 9-23, 16-30) | > 5000 | 32.6 | > 5000
